Experimental data: ChEMBL document CHEMBL3804761, “Synthesis of a stable and orally bioavailable englerin analogue” (Bioorg Med Chem Lett, 2016)
Activity calls are given as the source filed them. No cut-off for these calls is given here.

Molecular target: Protein kinase C (PKC) (Homo sapiens) (UniProt O94806+P41743+P17252+P05129+Q05655+P05771+Q05513+Q02156+P24723+Q15139+Q04759)
Experiment: Activation of PKC in human 786-0 cells at 1 uM
Format: cell-based

| Compound | Activity |
| --- | --- |
| CC/C(C)=C/C(=O)O[C@@H]1[C@H](C)C[C@H]2O[C@]1(O)[C@@H](O)[C@@]1(C)CC[C@H](O1)C(C)(C)/C=C/[C@H](C)C2=O | Active |
| CC(C)[C@@]12C[C@@H](OC(=O)CO)[C@@](C)(O1)[C@@H]1CC[C@@H](C)[C@H]1[C@@H]2OC(=O)/C(Cl)=C/c1ccccc1 | Active |
